In publication PMC10253665, “Enhancing the Catalytic Activity of Thermo-Asparaginase from Thermococcus sibiricus by a Double Mesophilic-like Mutation in the Substrate-Binding Region” (International Journal of Molecular Sciences, 2023):

Tests used:
[1] = target: T1, TsA (L-asparaginase from Thermococcus sibiricus) (Thermococcus sibiricus, UniProt C6A532); experiment: direct Nesslerization (ammonia release); assay type: biochemical; settings: 90 °C, Tris-HCl 0.05 M pH 9.0 (b36 says same conditions as mutant)
T1 construct: gene TSIB_1676

[2] = substrate: NC(=O)C[C@H](N)C(=O)O; experiment: direct Nesslerization (ammonia release); assay type: biochemical, Thermococcus sibiricus; settings: 90 °C, glycine-NaOH 0.01 M pH 9.3, printed substrate range 20-250 μM

T1 sequence (C6A532 entry or part of it): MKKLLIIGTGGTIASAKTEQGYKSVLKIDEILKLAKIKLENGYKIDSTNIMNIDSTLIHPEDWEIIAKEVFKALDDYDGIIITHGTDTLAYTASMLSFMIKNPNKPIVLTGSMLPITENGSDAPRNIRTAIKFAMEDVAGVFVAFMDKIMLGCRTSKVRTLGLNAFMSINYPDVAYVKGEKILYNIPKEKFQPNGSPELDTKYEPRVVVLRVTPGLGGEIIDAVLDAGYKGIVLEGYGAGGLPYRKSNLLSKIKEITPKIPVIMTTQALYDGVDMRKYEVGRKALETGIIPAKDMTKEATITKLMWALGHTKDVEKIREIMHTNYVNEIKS

Km [1] [µM]	Molecule	Km [2] [µM]
3000	NC(=O)C[C@H](N)C(=O)O [L-asparagine]	–
–	TsA (L-asparaginase from Thermococcus sibiricus) (Thermococcus sibiricus MM 739; D54G/T56Q) (protein) MKKLLIIGTGGTIASAKTEQGYKSVLKIDEILKLAKIKLENGYKIDSTNIMNIGSQLIHPEDWEIIAKEVFKALDDYDGIIITHGTDTLAYTASMLSFMIKNPNKPIVLTGSMLPITENGSDAPRNIRTAIKFAMEDVAGVFVAFMDKIMLGCRTSKVRTLGLNAFMSINYPDVAYVKGEKILYNIPKEKFQPNGSPELDTKYEPRVVVLRVTPGLGGEIIDAVLDAGYKGIVLEGYGAGGLPYRKSNLLSKIKEITPKIPVIMTTQALYDGVDMRKYEVGRKALETGIIPAKDMTKEATITKLMWALGHTKDVEKIREIMHTNYVNEIKS	6000
